{
  "source": "PubChem BioAssay AID1259246",
  "about": "(Broad Institute, 2017)",
  "note": "Results filed as inconclusive are left out. Active and inactive are the calls of the source.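 Rule for the calls: active = valid dose-response fit whose half-maximal growth-inhibiting concentration is at or below a set limit above the top tested dose; inconclusive = flat fit with effect between 30 and 70%, or poor fit; inactive = half-maximal concentration above a set limit.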",
  "data": [
    {"test": "antibacterial activity against Clostridioides difficile – 10-point retest, dose response (AID 1259246)", "conditions": "Clostridioides difficile clinical isolate growth, OD600, 24 h; at 60 µM (top of the series)", "values": [
      {"smiles": "C[C@@H]1CN([C@@H](C)CO)S(=O)(=O)c2ccc(C#Cc3ccccc3F)cc2O[C@@H]1CN(C)CC1CCOCC1", "activity change, negative = inhibition": "3.46% (inactive)"},
      {"smiles": "C[C@H]1CCCCO[C@H](CN(C)Cc2ccccc2)[C@@H](C)CN([C@@H](C)CO)C(=O)c2cc(NC(=O)Nc3ccc(C(F)(F)F)cc3)ccc2O1", "activity change, negative = inhibition": "3.08% (inactive)"},
      {"smiles": "COc1ccccc1CNC(=O)C[C@H]1C[C@H]2c3cc(NC(=O)NC4CCCC4)ccc3O[C@H]2[C@H](CO)O1", "activity change, negative = inhibition": "-5.15% (inactive)"},
      {"smiles": "N#C[C@@H]1[C@@H](c2ccc(C#Cc3ccccc3F)cc2)[C@H](CO)N1C(=O)C1CCCCC1", "activity change, negative = inhibition": "9.57% (inactive)"},
      {"smiles": "C[C@@H]1CN([C@@H](C)CO)S(=O)(=O)c2ccc(/C=C/c3ccccc3)cc2O[C@H]1CN(C)Cc1ccccc1", "activity change, negative = inhibition": "2.6% (inactive)"},
      {"smiles": "N#C[C@@H]1[C@@H](c2ccc(C#Cc3cccnc3)cc2)[C@@H](CO)N1C(=O)C1CCCCC1", "activity change, negative = inhibition": "1.92% (inactive)"},
      {"smiles": "COc1ccccc1CNC(=O)C[C@H]1C[C@@H]2c3cc(NC(=O)C4CCC4)ccc3O[C@@H]2[C@@H](CO)O1", "activity change, negative = inhibition": "2.54% (inactive)"},
      {"smiles": "O=C(C[C@H]1C[C@@H]2c3cc(NC(=O)Nc4ccc(F)cc4)ccc3O[C@@H]2[C@@H](CO)O1)NC1CCCCC1", "activity change, negative = inhibition": "0.486% (inactive)"},
      {"smiles": "CCCNC(=O)C[C@@H]1CC[C@H]2[C@H](COc3ccc(NC(=O)c4cccc(Cl)c4)cc3C(=O)N2C)O1", "activity change, negative = inhibition": "10.3% (inactive)"}
    ]},
    {"test": "antibacterial activity against Clostridioides difficile – 10-point retest, dose response (AID 1259246)", "conditions": "Clostridioides difficile clinical isolate growth, OD600, 24 h; at 120 µM (top of the series)", "values": [
      {"smiles": "C[C@H](CO)N1C[C@H](C)[C@@H](CN(C)Cc2ccc(Oc3ccccc3)cc2)Oc2c(NC(=O)Nc3ccccc3)cccc2C1=O", "activity change, negative = inhibition": "23.8% (inactive)"},
      {"smiles": "COc1ccc(-c2ccc([C@H]3[C@H](C#N)N(C(=O)c4cccc(F)c4)[C@H]3CO)cc2)cc1", "activity change, negative = inhibition": "21.7% (inactive)"},
      {"smiles": "C[C@@H]1CN([C@H](C)CO)C(=O)Cc2cc(NC(=O)C3CCCCC3)ccc2O[C@@H]1CN(C)Cc1ccc(-c2ccccc2)cc1", "activity change, negative = inhibition": "25.3% (inactive)"},
      {"smiles": "C[C@@H]1CN([C@@H](C)CO)C(=O)Cc2cc(NC(=O)c3ccncc3)ccc2O[C@@H]1CN(C)S(=O)(=O)c1cn(C)cn1", "activity change, negative = inhibition": "37.2% (inactive)"},
      {"smiles": "COC(=O)C[C@H]1C[C@@H]2c3cc(NC(=O)C4CCC4)ccc3O[C@@H]2[C@@H](CO)O1", "activity change, negative = inhibition": "-6.56% (inactive)"},
      {"smiles": "O=C(C[C@H]1C[C@@H]2c3cc(NC(=O)NC4CCCC4)ccc3O[C@@H]2[C@@H](CO)O1)NCc1ccc(Cl)cc1", "activity change, negative = inhibition": "8.51% (inactive)"},
      {"smiles": "C[C@H](CO)N1C[C@H](C)[C@H](CN(C)Cc2ccc(Oc3ccccc3)cc2)Oc2c(NC(=O)Nc3ccccc3)cccc2C1=O", "activity change, negative = inhibition": "10.9% (inactive)"},
      {"smiles": "C[C@@H]1CN([C@H](C)CO)C(=O)Cc2cc(NC(=O)CCCN(C)C)ccc2O[C@@H]1CN(C)Cc1ccc(Oc2ccccc2)cc1", "activity change, negative = inhibition": "22.2% (inactive)"},
      {"smiles": "COc1ccc(C(=O)Nc2ccc3c(c2)C(=O)N(C)C[C@H](OC)[C@H](C)CN[C@@H](C)CO3)cc1", "activity change, negative = inhibition": "8.1% (inactive)"},
      {"smiles": "COc1ccc(NC(=O)Nc2cccc3c2O[C@H](CN(C)Cc2ccc(Oc4ccccc4)cc2)[C@@H](C)CN([C@@H](C)CO)C3=O)cc1", "activity change, negative = inhibition": "19.2% (inactive)"},
      {"smiles": "CCCC#Cc1ccc2c(c1)O[C@H](CN(C)Cc1ccc3c(c1)OCO3)[C@H](C)CN([C@@H](C)CO)S2(=O)=O", "activity change, negative = inhibition": "25.5% (inactive)"},
      {"smiles": "C[C@@H]1CCCCO[C@@H](CN(C)S(=O)(=O)c2ccc(F)cc2)[C@H](C)CN([C@@H](C)CO)C(=O)c2cc(NC(=O)Nc3cccc4ccccc34)ccc2O1", "activity change, negative = inhibition": "18.9% (inactive)"},
      {"smiles": "C[C@@H]1CN([C@H](C)CO)C(=O)c2cccc(NC(=O)Nc3ccc(C(F)(F)F)cc3)c2O[C@H]1CN(C)Cc1ccc(-c2ccccc2)cc1", "activity change, negative = inhibition": "8.44% (inactive)"},
      {"smiles": "COc1ccc(NC(=O)Nc2cccc3c2O[C@@H](CN(C)Cc2ccc(Oc4ccccc4)cc2)[C@@H](C)CN([C@@H](C)CO)C3=O)cc1", "activity change, negative = inhibition": "30.5% (inactive)"},
      {"smiles": "CO[C@H]1CN(C)C(=O)c2ccc(NC(=O)C3CCC3)cc2OC[C@H](C)N(Cc2ccncc2)C[C@@H]1C", "activity change, negative = inhibition": "-5.3% (inactive)"},
      {"smiles": "C[C@@H]1CN([C@@H](C)CO)C(=O)c2cccc(NC(=O)Nc3ccc(C(F)(F)F)cc3)c2O[C@@H]1CN(C)S(=O)(=O)c1ccc(Cl)cc1", "activity change, negative = inhibition": "22.7% (inactive)"},
      {"smiles": "C[C@@H]1CN([C@H](C)CO)S(=O)(=O)c2ccc(C#CC3CCCCC3)cc2O[C@@H]1CN(C)Cc1cccnc1", "activity change, negative = inhibition": "20.4% (inactive)"},
      {"smiles": "C[C@@H]1CN([C@H](C)CO)S(=O)(=O)c2ccc(C#CCN(C)C)cc2O[C@@H]1CN(C)Cc1ccc2c(c1)OCO2", "activity change, negative = inhibition": "0.003% (inactive)"},
      {"smiles": "CC(C)CC#Cc1ccc2c(c1)O[C@H](CN(C)Cc1ccc3c(c1)OCO3)[C@H](C)CN([C@H](C)CO)S2(=O)=O", "activity change, negative = inhibition": "15.4% (inactive)"},
      {"smiles": "CC1=CC2(CO)C(=O)[C@]3(CO3)[C@H]1[C@H]1[C@]2(C)C=C(CO)C(=O)[C@]12CO2", "activity change, negative = inhibition": "10.8% (inactive)"},
      {"smiles": "COc1ccc(-c2ccc([C@H]3[C@H](C#N)N(C(=O)NC4CCCCC4)[C@H]3CO)cc2)cc1", "activity change, negative = inhibition": "7.21% (inactive)"},
      {"smiles": "C[C@@H]1CN([C@@H](C)CO)S(=O)(=O)c2ccc(/C=C/c3ccccc3)cc2O[C@H]1CN(C)Cc1cccnc1", "activity change, negative = inhibition": "71.2% (inactive)"},
      {"smiles": "C[C@H](CO)N1C[C@H](C)[C@H](CN(C)Cc2ccc(C(=O)O)cc2)Oc2cc(/C=C/c3ccccc3)ccc2S1(=O)=O", "activity change, negative = inhibition": "-7.29% (inactive)"},
      {"smiles": "C[C@H](CO)N1C[C@H](C)[C@H](CN(C)Cc2ccc(-c3ccccc3)cc2)Oc2c(NC(=O)Nc3ccc(C(F)(F)F)cc3)cccc2C1=O", "activity change, negative = inhibition": "16.3% (inactive)"},
      {"smiles": "CC(C)C#Cc1ccc2c(c1)O[C@H](CN(C)CC1CCOCC1)[C@H](C)CN([C@@H](C)CO)S2(=O)=O", "activity change, negative = inhibition": "4.6% (inactive)"},
      {"smiles": "C[C@H](CO)N1C[C@H](C)[C@@H](CN(C)Cc2cccnc2)Oc2cc(C#CC3CCCCC3)ccc2S1(=O)=O", "activity change, negative = inhibition": "27.1% (inactive)"},
      {"smiles": "C[C@@H]1CN([C@@H](C)CO)S(=O)(=O)c2ccc(C#CC3CCCCC3)cc2O[C@H]1CN(C)Cc1cccnc1", "activity change, negative = inhibition": "17.6% (inactive)"},
      {"smiles": "C[C@H]1CN([C@@H](C)CO)C(=O)c2cccc(NC(=O)Nc3ccc(C(F)(F)F)cc3)c2O[C@@H]1CN(C)Cc1ccc(-c2ccccc2)cc1", "activity change, negative = inhibition": "31.9% (inactive)"},
      {"smiles": "CC(C)NC(=O)Nc1ccc2c(c1)CC(=O)N([C@@H](C)CO)C[C@@H](C)[C@@H](CN(C)Cc1ccc(-c3ccccc3)cc1)O2", "activity change, negative = inhibition": "25% (inactive)"},
      {"smiles": "C[C@@H]1CN([C@@H](C)CO)S(=O)(=O)c2ccc(C#CCN(C)C)cc2O[C@@H]1CN(C)Cc1ccc2c(c1)OCO2", "activity change, negative = inhibition": "2.58% (inactive)"},
      {"smiles": "C[C@@H]1CN([C@H](C)CO)C(=O)c2cc(NC(=O)Nc3cccc4ccccc34)ccc2O[C@@H](C)CCCCO[C@H]1CN(C)S(C)(=O)=O", "activity change, negative = inhibition": "1.6% (inactive)"},
      {"smiles": "C[C@@H]1CN([C@@H](C)CO)S(=O)(=O)c2ccc(C#CC3CCCC3)cc2O[C@H]1CN(C)Cc1cccnc1", "activity change, negative = inhibition": "23.5% (inactive)"},
      {"smiles": "C[C@@H]1CCCCO[C@@H](CN(C)S(=O)(=O)c2ccc(F)cc2)[C@@H](C)CN([C@@H](C)CO)C(=O)c2cc(NC(=O)Nc3cccc4ccccc34)ccc2O1", "activity change, negative = inhibition": "12.1% (inactive)"},
      {"smiles": "CNC[C@H]1Oc2cc(C#CCC(C)C)ccc2S(=O)(=O)N([C@H](C)CO)C[C@@H]1C", "activity change, negative = inhibition": "19.7% (inactive)"},
      {"smiles": "C[C@H](CO)N1C[C@H](C)[C@@H](CN(C)S(=O)(=O)c2ccc(F)cc2)OCCCC[C@H](C)Oc2ccc(NC(=O)Nc3cccc4ccccc34)cc2C1=O", "activity change, negative = inhibition": "16.3% (inactive)"},
      {"smiles": "C[C@H](CO)N1C[C@H](C)[C@@H](CN(C)Cc2cccnc2)Oc2cc(Br)ccc2S1(=O)=O", "activity change, negative = inhibition": "-1.18% (inactive)"},
      {"smiles": "C[C@H](CO)N1C[C@H](C)[C@@H](CN(C)C(=O)Cc2cccnc2)Oc2cc(C#Cc3ccccc3F)ccc2S1(=O)=O", "activity change, negative = inhibition": "40.8% (inactive)"},
      {"smiles": "CNC[C@H]1Oc2c(N)cccc2C(=O)N([C@@H](C)CO)C[C@H]1C", "activity change, negative = inhibition": "-0.016% (inactive)"},
      {"smiles": "O=C(N[C@H]1CC[C@H](CCNS(=O)(=O)Cc2ccccc2)O[C@H]1CO)c1cnccn1", "activity change, negative = inhibition": "-2.56% (inactive)"},
      {"smiles": "Cc1cc(C(=O)Nc2cccc3c2O[C@H](CN(C)Cc2ccc(-c4ccccc4)cc2)[C@H](C)CN([C@@H](C)CO)C3=O)n(C)n1", "activity change, negative = inhibition": "0.388% (inactive)"},
      {"smiles": "C/C=C/c1ccc2c(c1)O[C@H](CN(C)CC1CCOCC1)[C@H](C)CN([C@H](C)CO)S2(=O)=O", "activity change, negative = inhibition": "-5.69% (inactive)"},
      {"smiles": "C[C@@H]1CCCCO[C@H](CN(C)S(=O)(=O)c2ccc(F)cc2)[C@@H](C)CN([C@H](C)CO)C(=O)c2cc(NC(=O)Nc3cccc4ccccc34)ccc2O1", "activity change, negative = inhibition": "7.93% (inactive)"}
    ]},
    {"test": "antibacterial activity against Clostridioides difficile – 10-point retest, dose response (AID 1259246)", "conditions": "Clostridioides difficile clinical isolate growth, OD600, 24 h; at 135 µM (top of the series)", "values": [
      {"smiles": "C[C@H](CO)N1C[C@H](C)[C@H](CN(C)Cc2ccc(Oc3ccccc3)cc2)Oc2ccc(NC(=O)CCCN(C)C)cc2CC1=O", "activity change, negative = inhibition": "34.3% (inactive)"},
      {"smiles": "C[C@H]1CN([C@@H](C)CO)C(=O)Cc2cc(NC(=O)CCCN(C)C)ccc2O[C@H]1CN(C)Cc1ccc(Oc2ccccc2)cc1", "activity change, negative = inhibition": "10.5% (inactive)"},
      {"smiles": "C[C@@H]1CN([C@H](C)CO)C(=O)Cc2cc(NC(=O)C3CC3)ccc2O[C@@H]1CN(C)Cc1ccc(C(F)(F)F)cc1", "activity change, negative = inhibition": "18% (inactive)"},
      {"smiles": "Cc1ccc(S(=O)(=O)N[C@H]2CC[C@H](CCNS(=O)(=O)Cc3ccccc3)O[C@@H]2CO)cc1", "activity change, negative = inhibition": "-4.21% (inactive)"},
      {"smiles": "C[C@@H]1CN([C@H](C)CO)C(=O)Cc2cc(NC(=O)CCC(F)(F)F)ccc2O[C@H]1CN(C)Cc1ccc(Oc2ccccc2)cc1", "activity change, negative = inhibition": "25.5% (inactive)"},
      {"smiles": "C[C@@H]1CN([C@@H](C)CO)C(=O)Cc2cc(NS(C)(=O)=O)ccc2O[C@@H]1CN(C)Cc1ccc(Oc2ccccc2)cc1", "activity change, negative = inhibition": "7.12% (inactive)"},
      {"smiles": "C[C@@H]1CN([C@@H](C)CO)C(=O)c2cc(NC(=O)Nc3cccc4ccccc34)ccc2O[C@@H](C)CCCCO[C@@H]1CN(C)S(=O)(=O)c1ccc(F)cc1", "activity change, negative = inhibition": "17.6% (inactive)"},
      {"smiles": "O=C(C[C@H]1C[C@H]2c3cc(NC(=O)Nc4ccccc4)ccc3O[C@H]2[C@@H](CO)O1)NC1CCCC1", "activity change, negative = inhibition": "11% (inactive)"}
    ]}
  ]
}
